This assay can be described thus: Inhibition of rat human chimera TRPV1 channel expressed in CHO cells. The class given is cell-based.
As a reminder, the IC50 is the concentration needed to halve the response being measured. A word on the pIC50: it is the negative decadic logarithm of the IC50, by convention in mol/L. A low value points to a large IC50. `O=C(/C=C/c1ccc(Cl)c(Cl)c1)Nc1ccc2c(c1)OCCO2`: the midpoint of inhibition, the IC50, lay at 449 nM and the pIC50 amounted to 6.35.
The matching figures for `CC(C)(C)c1ccc(/C(=C\C(=O)Nc2ccc3c(c2)OCCO3)c2cccc(N)c2)cc1`: 331 nM and 6.48.
As to `CC(C)(C)c1ccc(/C=C/C(=O)Nc2ccc3c(c2)OC[C@@H](CNCO)O3)cc1`, 690 nM corresponded to half-maximal inhibition (IC50) and the pIC50 is given as 6.16.
Compound `O=C(C=C(c1ccc(Br)cc1)c1ccc(Br)cc1)Nc1ccc2c(c1)OCCO2` showed an IC50 of 61 nM and a pIC50 of 7.22.
On to `CC(C)(C)c1ccc(/C=C/C(=O)Nc2ccc3oc(=O)cnc3c2)cc1`, for which the midpoint of inhibition, the IC50, lay at 18 nM. This lies in the double-digit nanomolar range.
`CC(C)(C)c1ccc(/C=C/C(=O)Nc2ccc3cc[nH]c3c2)cc1` yielded an IC50 of 19 nM. The IC50 values of the last two compounds are within 1.5-fold of each other.
In turn, `CC(C)(C)c1ccc(/C=C/C(=S)Nc2ccc3c(c2)OCCO3)cc1` came in with an IC50 of 392 nM and a pIC50 of 6.41.
The matching figures for `O=C(/C=C/c1ccc(C(F)(F)F)cc1C(F)(F)F)Nc1ccc2c(c1)OCCO2`: 451 nM and 6.35.
In the case of `COc1cccc(NC(=O)/C=C/c2ccc(C(C)(C)C)cc2)c1`, the IC50 came out at 57 nM and the pIC50 is recorded as 7.24.
Consider `CC(C)(C)c1ccc(/C=C/C(=O)Nc2cccc(C(N)=O)c2)cc1`, for which the IC50 turned out to be 33 nM and the pIC50 worked out at 7.48.
The matching figures for `C=Cc1ccc(/C=C/C(=O)Nc2ccc3c(c2)OCCO3)cc1`: 3520 nM and 5.45.
The matching figures for `O=C(/C=C/c1ccc(-c2ccccc2)cc1)Nc1ccc2c(c1)OCCO2`: greater than 40000 nM and 4.4.
The compound `CC(C)(C)c1ccc(/C(=C/C(=O)Nc2ccc3c(c2)OCCO3)c2ccccc2)cc1` displayed an IC50 of 48 nM and a pIC50 of 7.32.
The matching figures for `CC(C)(C)c1ccc(/C=C/C(=O)Nc2ccc3c(c2)O[C@H](CO)CO3)cc1`: 216 nM and 6.66.
On to `CC(C)(C)c1ccc(/C(=C\C(=O)Nc2ccc3c(c2)OCCO3)c2ccc(F)cc2)cc1`, for which 39 nM corresponded to half-maximal inhibition (IC50) and the pIC50 is recorded as 7.41.
The like results for `CN(C(=O)/C=C/c1ccc(C(C)(C)C)cc1)c1ccc2c(c1)OCCO2` were, in that order, 19400 nM and 4.71.
The matching figures for `O=C(/C=C/c1cccc(C(F)(F)F)c1)Nc1ccc2c(c1)OCCO2`: 1210 nM and 5.92.
The like results for `CC(C)(C)c1ccc(/C=C/C(=O)Nc2ccc3c(c2)OC[C@@H](COCC2CC2)O3)cc1` were, in that order, 329 nM and 6.48.
For `CC(C)(C)c1ccc(/C=C/C(=O)Nc2ccc3c(c2)OCCO3)cc1.Cl`, the IC50 is 550 nM and the pIC50 is reported as 6.26.
Regarding `CC(C)(C)c1cccc(/C=C/C(=O)Nc2ccc3c(c2)OCCO3)c1`, inhibition was half-maximal at 548 nM (IC50) and the negative logarithm of the IC50 (pIC50) stood at 6.26.
The like results for `Cc1ccc(/C=C/C(=O)Nc2ccc3c(c2)OCCO3)cc1C` were, in that order, 455 nM and 6.34.
As for `CCOC(=O)c1cc(C(C)(C)C)ccc1/C=C/C(=O)Nc1ccc2c(c1)OCCO2`, the midpoint of inhibition, the IC50, lay at 26 nM and the pIC50 was found to be 7.58.
The matching figures for `COc1ccc(/C=C/C(=O)Nc2ccc3c(c2)OCCO3)cc1`: 1870 nM and 5.73.
For `CC(C)(C)c1ccc(/C(=C\C(=O)Nc2ccc3c(c2)OCCO3)c2ccc(Cl)cc2)cc1`, the midpoint of inhibition, the IC50, lay at 42 nM and the pIC50 worked out at 7.37.
In the case of `CCCCc1ccc(/C=C/C(=O)Nc2ccc3c(c2)OCCO3)cc1`, the IC50 came out at 312 nM and the pIC50 is reported as 6.51.
The compound `CC(C)(C)c1ccc(C(=CC(=O)Nc2ccc3c(c2)OCCO3)c2ccc(C(C)(C)C)cc2)cc1` registered an IC50 of 2510 nM and a pIC50 of 5.6.
Consider `CC(C)(C)c1ccc(/C=C/C(=O)Nc2ccccc2)cc1`, for which the IC50 is 269 nM and the pIC50 was determined as 6.57.

The values above are taken from ChEMBL document CHEMBL1138244, “Three-dimensional quantitative structure-activity relationships and activity predictions of human TRPV1 channel antagonists: comparative molecular field analysis and comparative molecular similarity index analysis of cinnamides” (J Med Chem, 2007).
